{"source": "patent US9120812B2", "about": "“Pyrimidooxazocine derivatives as mTOR-inhibitors” (SANOFI, priority 2012, dated 2015)", "key": {"[1]": {"test_system": "U87MG tumour cells", "test": "Test of in vitro proliferation of U87MG tumour cells", "assay_type": "cell-based", "conditions": "Homo sapiens, U-87 MG, 72 h, U87MG cells, 72 hours; read-out: U87 Cell Proliferation IC50", "experimental": "Model 4: Test of in vitro Proliferation of U87MG Tumour Cells.\nThe cell growth is determined with the reagent CellTiter 96 AQueous One Solution Cell Proliferation Assay from Promega (Cat. No. G3581)."}, "[2]": {"molecular_target": "PI3Kα (p110α/p85α) (Homo sapiens (Human), UniProt P42336)", "sequence (P42336 whole entry)": "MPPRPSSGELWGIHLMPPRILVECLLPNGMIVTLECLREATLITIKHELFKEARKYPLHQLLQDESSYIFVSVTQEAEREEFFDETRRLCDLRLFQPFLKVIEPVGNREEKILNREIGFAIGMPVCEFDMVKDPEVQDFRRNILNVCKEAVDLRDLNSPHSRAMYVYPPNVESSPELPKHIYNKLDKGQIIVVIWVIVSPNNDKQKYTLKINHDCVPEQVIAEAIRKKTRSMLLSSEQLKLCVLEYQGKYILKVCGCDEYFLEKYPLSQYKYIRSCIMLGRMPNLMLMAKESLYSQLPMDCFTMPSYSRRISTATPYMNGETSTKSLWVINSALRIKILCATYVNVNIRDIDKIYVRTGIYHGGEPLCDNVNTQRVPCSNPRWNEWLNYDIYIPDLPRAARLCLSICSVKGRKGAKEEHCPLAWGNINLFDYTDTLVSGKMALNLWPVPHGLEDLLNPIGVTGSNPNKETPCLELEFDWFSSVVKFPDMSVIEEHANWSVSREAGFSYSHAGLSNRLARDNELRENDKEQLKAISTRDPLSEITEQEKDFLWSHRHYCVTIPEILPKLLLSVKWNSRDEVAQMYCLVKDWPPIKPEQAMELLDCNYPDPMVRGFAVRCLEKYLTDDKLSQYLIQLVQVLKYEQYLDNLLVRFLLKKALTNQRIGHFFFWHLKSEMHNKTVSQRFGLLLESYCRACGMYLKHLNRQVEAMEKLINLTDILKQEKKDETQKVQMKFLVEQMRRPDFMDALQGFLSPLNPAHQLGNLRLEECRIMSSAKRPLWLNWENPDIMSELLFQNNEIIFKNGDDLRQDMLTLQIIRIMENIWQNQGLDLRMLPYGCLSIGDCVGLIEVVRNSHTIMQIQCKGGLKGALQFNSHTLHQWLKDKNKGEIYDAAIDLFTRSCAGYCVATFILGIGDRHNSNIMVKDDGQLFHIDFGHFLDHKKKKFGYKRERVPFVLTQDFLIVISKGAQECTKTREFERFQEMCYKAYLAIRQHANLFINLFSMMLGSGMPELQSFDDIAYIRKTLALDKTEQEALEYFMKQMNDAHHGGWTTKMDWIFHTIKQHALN", "sequence (P27986 whole entry partner)": "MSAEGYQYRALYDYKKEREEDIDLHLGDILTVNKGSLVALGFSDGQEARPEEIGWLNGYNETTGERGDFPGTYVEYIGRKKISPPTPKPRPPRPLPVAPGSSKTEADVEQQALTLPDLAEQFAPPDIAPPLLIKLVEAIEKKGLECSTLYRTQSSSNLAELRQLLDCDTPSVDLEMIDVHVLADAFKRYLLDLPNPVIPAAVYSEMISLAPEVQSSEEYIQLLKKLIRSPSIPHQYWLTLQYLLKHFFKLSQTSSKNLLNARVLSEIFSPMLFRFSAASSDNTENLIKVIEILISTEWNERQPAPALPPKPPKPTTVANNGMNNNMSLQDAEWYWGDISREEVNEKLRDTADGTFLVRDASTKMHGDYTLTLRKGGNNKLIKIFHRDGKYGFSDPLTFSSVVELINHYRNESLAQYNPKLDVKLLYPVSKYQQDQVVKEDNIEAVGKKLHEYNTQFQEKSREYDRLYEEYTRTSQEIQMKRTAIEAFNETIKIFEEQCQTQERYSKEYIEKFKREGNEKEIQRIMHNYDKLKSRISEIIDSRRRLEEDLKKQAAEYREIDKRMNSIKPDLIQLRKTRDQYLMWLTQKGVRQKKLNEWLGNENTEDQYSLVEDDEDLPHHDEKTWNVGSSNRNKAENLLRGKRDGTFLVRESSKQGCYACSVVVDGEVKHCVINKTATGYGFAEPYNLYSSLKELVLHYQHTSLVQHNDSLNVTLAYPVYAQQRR", "test": "PI3Kα enzymatic test by measuring the consumption of ATP", "assay_type": "biochemical", "how_it_was_run": "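p110α/p85α (1.7 μg/ml) with 50 μM PIP2 and 2 μM ATP in pH 7.5 Tris buffer with EGTA, MgCl2, Chaps, DTT; reaction 90 min. Remaining ATP measured by luciferin/luciferase luminescence; IC50 from threefold serial dilutions spanning at least 10 000-fold.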"}, "[3]": {"molecular_target": "mTOR (human recombinant aa mTOR 1360-2549) (Homo sapiens (Human), UniProt P42345)", "sequence (P42345 1360-2549)": "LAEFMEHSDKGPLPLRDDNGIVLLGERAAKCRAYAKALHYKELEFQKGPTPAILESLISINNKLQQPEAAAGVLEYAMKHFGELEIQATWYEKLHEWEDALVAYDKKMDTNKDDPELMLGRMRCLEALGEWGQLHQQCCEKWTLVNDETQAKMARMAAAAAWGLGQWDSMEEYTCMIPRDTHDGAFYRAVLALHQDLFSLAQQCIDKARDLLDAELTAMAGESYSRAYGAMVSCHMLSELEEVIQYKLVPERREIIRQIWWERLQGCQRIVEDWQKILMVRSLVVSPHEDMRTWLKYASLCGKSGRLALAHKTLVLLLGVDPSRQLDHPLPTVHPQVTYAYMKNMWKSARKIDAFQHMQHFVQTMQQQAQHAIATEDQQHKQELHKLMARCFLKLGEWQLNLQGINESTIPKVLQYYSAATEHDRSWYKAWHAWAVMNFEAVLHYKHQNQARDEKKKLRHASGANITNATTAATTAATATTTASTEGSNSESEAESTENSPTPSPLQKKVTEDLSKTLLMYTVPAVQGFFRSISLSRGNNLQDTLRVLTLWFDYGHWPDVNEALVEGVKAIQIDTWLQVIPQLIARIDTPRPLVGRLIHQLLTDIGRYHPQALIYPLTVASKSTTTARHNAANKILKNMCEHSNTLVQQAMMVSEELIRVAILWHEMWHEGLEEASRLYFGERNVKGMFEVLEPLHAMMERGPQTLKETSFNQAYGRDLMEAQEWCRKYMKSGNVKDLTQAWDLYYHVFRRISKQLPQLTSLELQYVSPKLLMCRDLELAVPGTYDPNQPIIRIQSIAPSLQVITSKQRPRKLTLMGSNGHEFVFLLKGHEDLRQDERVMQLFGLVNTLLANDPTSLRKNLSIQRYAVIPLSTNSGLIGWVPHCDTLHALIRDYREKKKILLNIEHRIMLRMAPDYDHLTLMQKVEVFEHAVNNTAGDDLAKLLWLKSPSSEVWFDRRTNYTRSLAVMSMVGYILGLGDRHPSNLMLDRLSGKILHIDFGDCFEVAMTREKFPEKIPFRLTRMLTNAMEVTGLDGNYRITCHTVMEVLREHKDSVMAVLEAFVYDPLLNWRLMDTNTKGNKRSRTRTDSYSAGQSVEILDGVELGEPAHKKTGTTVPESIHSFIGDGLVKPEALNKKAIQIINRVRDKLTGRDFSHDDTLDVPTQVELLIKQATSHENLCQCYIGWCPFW", "test": "mTOR enzymatic test by TR-FRET (phosphorylation of GFP-4EBP1)", "assay_type": "biochemical", "how_it_was_run": "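TR-FRET detection of GFP-4EBP1 phosphorylation by a terbium-labelled anti-phospho-Thr46 antibody. Kinase reaction ran 30 min at room temperature, was quenched with EDTA (10 mM final) plus Tb-antibody (2 nM final) and left 60 min. Emission at 520 and 490 nm after 340 nm excitation, reported as the 520/490 ratio.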"}, "[4]": {"test_system": "Akt-pS473 in U87MG cells", "conditions": "Homo sapiens, U-87 MG; for IC50: read-out: U87 Akt-pS473 % Inhibition or IC50, nM (IC50), U87MG cells", "description": "Model 3: Cellular Test of Phosphorylation of the Epitope S473 of the Akt Protein on the U87MG Line Via an ELISA Test\nAn electrochemiluminescence signal is generated by a ruthenium-labelled anti-rabbit antibody.\nAfter culturing for 16-20 hours (the cells are at 100% of confluence) at 37° C. under 5% CO2, 1 μl of the chemical compounds in 100% DMSO (1% DMSO final concentration on the cells) is added. The cells are incubated with the compounds for 3 hours at 37° C. under 5% CO2.\nThe free sites are blocked with 150 μl/well of a buffer of 50 mM Tris pH 7.5, 0.15 M NaCl, 0.02% Tween 20, 3% BSA with stirring at 450 rpm for 1 hour at room temperature, followed by a step of washing with 3×300 μl of a buffer of 50 mM Tris pH 7.5, 0.15 M NaCl, 0.02% Tween 20.\n15 μl of cell lysate are mixed with 15 μl of a 50 mM buffer of Tris pH 7.5, 0.15 M NaCl, 0.02% Tween 20, 1% BSA in a precoated ELISA plate (see above), and incubated for 1 hour at room temperature with stirring, followed by a step of washing with 3×300 μl of a buffer of 50 mM Tris pH 7.5, 0.15 M NaCl, 0.02% Tween 20. The pS473 epitope of Akt is detected with a rabbit polyclonal antibody (Cell Signaling, SC9271), diluted 100-fold in 50 mM Tris pH 7.5, 0.15 M NaCl, 0.02% Tween 20, 1% BSA, 25 μl/well (incubation for 1 hour at room temperature with stirring at 450 rpm).\nAfter washing (see above), revelation is performed with a ruthenium-labelled anti-rabbit antibody (MSD R32AB1), diluted 3000-fold in a 50 mM buffer of Tris pH 7.5, 0.15 M NaCl, 0.02% Tween 20, 1% BSA, 25 μl/well, followed by incubation for 1 hour at room temperature with stirring at 450 rpm, and the plates are covered with aluminium.\nAfter a further washing step, the plates are emptied and 150 μl of MSD Read Buffer T diluted fourfold with water are added. The electrochemiluminescence is measured on the MSD Sector Imager 6000."}}, "data": [{"smiles": "CCN1CC(C)(C)Oc2nc(N3CCOC[C@@H]3C)nc(-c3ccc(NC(=O)Nc4ccncc4)cc3F)c2C1=O", "note": "[Example 12, 1-{4-[6-ethyl-8,8-dimethyl-2-((S)-3-methylmorpholin-4-yl)-5-oxo-5,6,7,8-tetrahydro-9-oxa-1,3,6-triazabenzocyclohepten-4-yl]-3-fluorophenyl}-3-pyridin-4-ylurea]", "values": [{"measurement": "IC50", "setting": "[1]", "result": 0.121, "unit": "µM"}, {"measurement": "PI3Ka IC50", "setting": "[2]", "result": 0.64, "unit": "µM"}, {"measurement": "IC50", "setting": "[3]", "result": 0.017, "unit": "µM"}, {"measurement": "IC50", "setting": "[4]", "result": 43, "unit": "nM"}]}, {"smiles": "CCN1CC(C)(C)Oc2nc(N3CC4CCC(C3)O4)nc(-c3ccc(NC(=O)Nc4ccc(N5CCOCC5)cn4)cc3)c2C1=O", "note": "[Example 250, 1-{4-[6-Ethyl-8,8-dimethyl-2-(8-oxa-3-azabicyclo[3.2.1]oct-3-yl)-5-oxo-5,6,7,8-tetrahydro-9-oxa-1,3,6-triazabenzocyclohepten-4-yl]phenyl}-3-(5-morpholin-4-ylpyridin-2-yl)urea]", "values": [{"measurement": "IC50", "setting": "[1]", "result": 0.1, "unit": "µM"}, {"measurement": "PI3Ka IC50", "setting": "[2]", "result": ">10", "unit": "µM"}, {"measurement": "IC50", "setting": "[3]", "result": 0.036, "unit": "µM"}, {"measurement": "IC50", "setting": "[4]", "result": 38, "unit": "nM"}]}, {"smiles": "CCN1CC(C)(C)Oc2nc(N3CCOC[C@@H]3C)nc(-c3ccc(NC(=O)Nc4ccccn4)c(F)c3)c2C1=O", "note": "[Example 192, 1-{4-[6-Ethyl-8,8-dimethyl-2-((S)-3-methylmorpholin-4-yl)-5-oxo-5,6,7,8-tetrahydro-9-oxa-1,3,6-triazabenzocyclohepten-4-yl]-2-fluorophenyl}-3-pyridin-2-ylurea]", "values": [{"measurement": "IC50", "setting": "[1]", "result": 1.77, "unit": "µM"}, {"measurement": "PI3Ka IC50", "setting": "[2]", "result": 1.31, "unit": "µM"}, {"measurement": "IC50", "setting": "[3]", "result": 0.029, "unit": "µM"}, {"measurement": "inhibition at 3 µM", "setting": "[4]; read-out: U87 Akt-pS473 % Inhibition", "result": 82, "unit": "%"}]}, {"smiles": "CCN1CC(C)(C)Oc2nc(N3C4CCC3COC4)nc(-c3ccc(NC(=O)Nc4cc(OC)ccn4)cc3F)c2C1=O", "note": "[Example 89, 1-{4-[6-Ethyl-8,8-dimethyl-2-(3-oxa-8-azabicyclo[3.2.1]oct-8-yl)-5-oxo-5,6,7,8-tetrahydro-9-oxa-1,3,6-triazabenzocyclohepten-4-yl]-3-fluorophenyl}-3-(4-methoxypyridin-2-yl)urea]", "values": [{"measurement": "IC50", "setting": "[1]", "result": 0.221, "unit": "µM"}, {"measurement": "PI3Ka IC50", "setting": "[2]", "result": ">10", "unit": "µM"}, {"measurement": "IC50", "setting": "[3]", "result": 0.084, "unit": "µM"}, {"measurement": "IC50", "setting": "[4]", "result": 260, "unit": "nM"}]}, {"smiles": "CCN1CC(C)(C)Oc2nc(N3CC4CCC(C3)O4)nc(-c3ccc(NC(=O)Nc4ccc(OC)cn4)cc3)c2C1=O", "note": "[Example 44, 1-{4-[6-Ethyl-8,8-dimethyl-2-(8-oxa-3-azabicyclo[3.2.1]oct-3-yl)-5-oxo-5,6,7,8-tetrahydro-9-oxa-1,3,6-triazabenzocyclohepten-4-yl]phenyl}-3-(5-methoxypyridin-2-yl)urea]", "values": [{"measurement": "IC50", "setting": "[1]", "result": 0.22, "unit": "µM"}, {"measurement": "PI3Ka IC50", "setting": "[2]", "result": ">10", "unit": "µM"}, {"measurement": "IC50", "setting": "[3]", "result": 0.034, "unit": "µM"}, {"measurement": "IC50", "setting": "[4]", "result": 40, "unit": "nM"}]}, {"smiles": "CCN1CC(C)(C)Oc2nc(N3CC4CCC(C3)O4)nc(-c3ccc(NC(=O)Nc4ccc(C)cn4)cc3)c2C1=O", "note": "[Example 34, 1-{4-[6-Ethyl-8,8-dimethyl-2-(8-oxa-3-azabicyclo[3.2.1]oct-3-yl)-5-oxo-5,6,7,8-tetrahydro-9-oxa-1,3,6-triazabenzocyclohepten-4-yl]phenyl}-3-(5-methylpyridin-2-yl)urea]", "values": [{"measurement": "IC50", "setting": "[1]", "result": 0.32, "unit": "µM"}, {"measurement": "PI3Ka IC50", "setting": "[2]", "result": ">10", "unit": "µM"}, {"measurement": "IC50", "setting": "[3]", "result": 0.043, "unit": "µM"}, {"measurement": "IC50", "setting": "[4]", "result": 70, "unit": "nM"}]}, {"smiles": "CC[C@H]1COCCN1c1ccc(NC(=O)Nc2ccc(-c3nc(N4C5CCC4COC5)nc4c3C(=O)N(CC)CC(C)(C)O4)cc2F)cn1", "note": "[Example 249, 1-{4-[6-Ethyl-8,8-dimethyl-2-(3-oxa-8-azabicyclo[3.2.1]oct-8-yl)-5-oxo-5,6,7,8-tetrahydro-9-oxa-1,3,6-triazabenzocyclohepten-4-yl]-2-fluorophenyl}-3-[6-((S)-3-ethylmorpholin-4-yl)pyridin-3-yl]urea]", "values": [{"measurement": "IC50", "setting": "[1]", "result": 0.029, "unit": "µM"}, {"measurement": "PI3Ka IC50", "setting": "[2]", "result": ">10", "unit": "µM"}, {"measurement": "IC50", "setting": "[3]", "result": 0.365, "unit": "µM"}, {"measurement": "IC50", "setting": "[4]", "result": 27, "unit": "nM"}]}, {"smiles": "CCNC(=O)Nc1ccc(-c2nc(N3CC4CCC(C3)O4)nc3c2C(=O)N(C2CCN(C)CC2)CC(C)(C)O3)cc1", "note": "[Example 132, 1-{4-[8,8-Dimethyl-6-(1-methylpiperidin-4-yl)-2-(8-oxa-3-azabicyclo[3.2.1]oct-3-yl)-5-oxo-5,6,7,8-tetrahydro-9-oxa-1,3,6-triazabenzocyclohepten-4-yl]phenyl}-3-ethylurea]", "values": [{"measurement": "IC50", "setting": "[1]", "result": "> 10", "unit": "µM"}, {"measurement": "PI3Ka IC50", "setting": "[2]", "result": 4.32, "unit": "µM"}, {"measurement": "IC50", "setting": "[3]", "result": 0.245, "unit": "µM"}, {"measurement": "IC50", "setting": "[4]", "result": "> 3000", "unit": "nM"}]}]}
